Experimental data: patent publication US20110251219A1, “TREATMENT FOR GLOMERULONEPHRITIS WITH 2-[4-(7-ETHYL-5H-PYRROLO[2,3-B]PYRAZIN-6-YL)PHENYL]PROPAN-2-OL” (SANOFI, priority 2008, published 2011)
Several values for one entry are separate records, joined by “and”; a condition that tells them apart may be missing. Identical values can stand only once.

Columns and labels:
[1] = system: glomerulonephritis induced by a 30 microgram intravenous injection of clone a84 (IgG2a); test: a84 antibody-induced glomerulonephritis animal model, urinary protein levels; format: in vivo, Rat, WKY; conditions: for % Inhibition of Total Urinary Protein Levels (mg), individual animal / % Inhibition of Total Urinary Protein Levels (mg), Mean: 30 ug a84 antibody iv; for % Inhibition of Total Urinary Protein Levels (mg), Mean: urine day 6-7 (16 h), male WKY rats, group mean
Excerpt: Study Objective: Glomerulonephritis is a complex disease involving cytokines, cell infiltration, cell proliferation, and rapid deterioration of renal function. This animal model will provide a relatively short term and quantitative measurement of glomerulonephritis. This study was designed to determine if a compound of Formula I will reduce glomerulonephritis induced by a 30 microgram intravenous injection of clone a84 (IgG2a). This monoclonal antibody induces disease by binding to a glomerular basement membrane protein. Disease progression is monitored in two ways in this model. First, the levels of protein in excreted urine are assessed. This readout serves as a rapid marker of renal diseased. The second mechanism by which disease is monitored is by examining the substructure of the kidney via histological examination.
Aim of Study: Glomerulonephritis is a complex disease involving cytokines, cell infiltration, cell proliferation, and rapid deterioration of renal function. This animal model provided a relatively short term and quantitative measurement of glomerulonephritis. This study was designed to determine if the compound of Formula I as hydrochloride salt will reduce glomerulonephritis induced by a 30 microgram intravenous injection of clone a84 (IgG2a).
Species, Strain, Supplier: Rat, WKY, Charles River
Duration and Frequency of Treatment: Animals in groups B through F and H through L received a 30 ug iv injection of a84 antibody on day 0 approximately 1 hour post dose.
Route of Administration: Oral gavage
Duration and Frequency of Treatment: Each animal in groups C, D, and E received an A.M. and P.M. dose approximately 8 hours apart from day 0 through day 6. Each animal in groups I, J, and K received an A.M. and P.M. dose approximately 8 hours apart from day 0 through day 3. Dosing was initiated on day 0 approximately 1 hour prior to a84 antibody injection.
Route of Administration: intraperitoneal (ip)
Duration and Frequency of Treatment: Each animal in groups F and L received an A.M. dose on day 0 approximately 1 hour prior to a84 antibody injection and a PM dose on day 3.
Kit: Rat Urinary Protein Assay Kit
Study Parameters Rat urinary proteins was measured over approximately a 16 hour period from day 6 to day 7. The kidneys were harvested for histological evaluation and for possible mRNA isolation.
Evaluation Method: Rat urinary protein levels was determined by the kit described in section 2.3.
Chronology of Examinations and/or Sampling: 1) Rats were placed into six groups of eight, six groups of 4, and one group of 3 based on compound and dose administered: Group A Vehicle (0.5% methyl cellulose containing 0.2% tween 80)+IV saline injection n=8, Group B Vehicle (0.5% methyl cellulose containing 0.2% tween 80)+IV a84 antibody injection n=8, Group C Compound of Formula I as hydrochloride salt 3.0 mg/kg+IV a84 antibody injection n=8, Group D SAR397769A 10 mg/kg+IV a84 antibody injection n=8, Group E Compound of Formula I as hydrochloride salt 30 mg/kg+IV a84 antibody injection n=8, Group F Enbrel 5.0 mg/kg+IV a84 antibody injection, Group G Vehicle (0.5% methyl cellulose containing 0.2% tween 80)+IV saline injection n=4, Group H Vehicle (0.5% methyl cellulose containing 0.2% tween 80)+IV a84 antibody injection n=4, Group I Compound of Formula I as hydrochloride salt 3.0 mg/kg+IV a84 antibody injection n=4, Group J SAR397769A 10 mg/kg+IV a84 antibody injection n=4, Group K Compound of Formula I as hydrochloride salt 30 mg/kg+IV a84 antibody injection n=4, Group L Enbrel 5.0 mg/kg+IV a84 antibody injection n=4, and Group M Naïve n=3. 2) On day 0, rats were dosed one hour prior to a84 antibody injection. Animals in groups A through E, and G through K were dosed orally. Dosing continued twice daily in groups A through E from day 0 to day 6 with approximately 8 hours between doses. Dosing continued twice daily in groups G through K from day 0 to day 3 with approximately 8 hours between doses. […]

Syk kinase = Syk kinase (Homo sapiens, UniProt P43405); conditions: as described in WO2008/033798; cited from earlier work

Compound	% Inhibition of Total Urinary Protein Levels (mg), individual animal ([1]; 3.0 mg/kg oral gavage twice daily day 0-6, single animals 1-8)	% Inhibition of Total Urinary Protein Levels (mg), Mean ([1]; 3.0 mg/kg oral gavage twice daily day 0-6) [%]	% Inhibition of Total Urinary Protein Levels (mg), Mean ([1]; 3.0 mg/kg oral gavage twice daily day 0-6, listed as compound of Formula I) [%]	% Inhibition of Total Urinary Protein Levels (mg), individual animal ([1]; 10 mg/kg oral gavage twice daily day 0-6, single animals 1-8)	% Inhibition of Total Urinary Protein Levels (mg), Mean ([1]; 10 mg/kg oral gavage twice daily day 0-6) [%]	% Inhibition of Total Urinary Protein Levels (mg), Mean ([1]; 10 mg/kg oral gavage twice daily day 0-6, listed as compound of Formula I) [%]	% Inhibition of Total Urinary Protein Levels (mg), individual animal ([1]; 30 mg/kg oral gavage twice daily day 0-6, single animals 1-8)	% Inhibition of Total Urinary Protein Levels (mg), Mean ([1]; 30 mg/kg oral gavage twice daily day 0-6) [%]	% Inhibition of Total Urinary Protein Levels (mg), Mean ([1]; 30 mg/kg oral gavage twice daily day 0-6, listed as compound of Formula I) [%]	reduction of urinary protein levels compared with positive control (Enbrel) ([1]; 30 mg/kg versus Enbrel 5.0 mg/kg)	Syk kinase inhibition (Syk kinase)	% Inhibition of Total Urinary Protein Levels (mg), individual animal ([1]; 5.0 mg/kg ip on day 0 and day 3, single animals 1-7)	% Inhibition of Total Urinary Protein Levels (mg), Mean ([1]; 5.0 mg/kg ip on day 0 and day 3) [%]
CCc1c(-c2ccc(C(C)(C)O)cc2)[nH]c2nccnc12 [Exp Cmpd, 2-[4-(7-Ethyl-5H-pyrrolo [2,3-b]pyrazin-6-yl)-phenyl]-propan-2-ol]	−0.60% and 9.50% and −5.97% and 54.11% and 43.80% and 42.33% and 65.58% and −3.63%	25.64	25	46.17% and 64.93% and 71.77% and 76.96% and 81.22% and 43.56% and 35.61% and 11.63%	53.98	53	84.66% and 85.65% and 79.73% and 86.92% and 88.28% and 84.82% and 81.26% and 92.32%	85.46	85	significantly better than the positive control	Syk kinase inhibitor		
Enbrel [reference compound]												50.26% and 33.67% and 61.10% and 46.54% and 58.91% and 63.92% and 22.67%	48.15
